The results in this text go back to patent US8785423B2, “Compositions and methods of inducing endoplasmic reticulum stress response for the treatment of cell proliferative diseases” (University of Maryland, Baltimore, priority 2008, dated 2014).

Holding throughout (assay type): cell-based
Test [1] deals with DU-145 cells. In words: MTT cell viability assay, 96 hr exposure. The note with it: DU-145, 96 hrs; for GI50: Homo sapiens. The method, then:
(§1) All cell lines were obtained from American. Type Culture Collection (Rockville, Md.) and maintained in RPM 1640 media supplemented with 10% fetal bovine serum and 5% penicillin streptomycin solution. Cells were grown as a monolayer in a humidified incubator (5% CO2) at 37° C. To determine the effect of the various compounds on cell proliferation, cells were plated (2500 cells/well) in 96-well cell culture dishes (Corning, Inc. Corning, N.Y.). After a 24 hr attachment period, media was replaced with fresh media containing compounds (0.01 μM-100 μM) or vehicle (95% ethanol). The cells were then allowed to grow in the presence of the drugs for 96 hrs. After 96 hrs, relative cell viability was assessed using the MIT reagent (3-(4,5-dimethylthiazol-2-yl)-2,5-diphenyltetrazolium bromide) as is well-known in the art. […] Results were plotted using the average of each dose over all three experiments and fitted with a best-fit sigmoidal dose response variable slope curve using GraphPad Prism 4.01 (GraphPad Software, Inc.). For combination of VN/124-1 and Thapsigargin, cells were treated for 72 hrs and viability was assessed as described for single agents. Combination index (CI) was calculated as is well known in the art, and CI values less than 1 are considered synergistic.
(Formazan colour is commonly taken as a measure of viable cells.)

Test [2] has as its system LNCaP cells. In words: MTT cell viability assay, 96 hr exposure. The note with it: for GI50: Homo sapiens. The method, then:
as §1

Test [3] has as its system PC-3 cells. In words: MTT cell viability assay, 96 hr exposure. The note with it: PC-3, 96 hrs; for GI50: Homo sapiens. The procedure: as §1
Test [4] concerns PC-3 cells. In words: Microarray global gene expression (GeneChip Human Genome Focus Array, DAVID ontologies). Particulars: 20 μM, 24 hrs. The procedure: To perform the microarray experiments, PC-3 cells were treated with (95% ethanol) or 20 μM of VN/124-1. After 24 hr exposure to the agent, cells were pelleted and lysed using Qiagen RLT (Qiagen Inc.; Valencia, Calif.) buffer containing 1% β-mercaptoethanol. Total RNA was isolated using the Qiagen RNeasy-Mini Kit following manufacturer's protocol. Quantity and purity were assessed by absorption at 260 nm and 280 nm. RNA integrity was assessed using an Agilent Bioanalyzer (Agilent Technologies; Santa Clara, Calif.). Experiments were carried out in duplicate, with triplicate samples (dosed independently on 3 different days) from each experiment pooled for analysis on a single chip.
Samples were hybridized to a GeneChip® Human Genome Focus Array (Affymetrix Inc., U.S.A.) and analyzed using an Affymetrix Genechip Scanner 3000 according to manufacturer's protocol. Gene ontologies were identified using the online Database for Annotation, Visualization, and integrated Discovery (DAVID) provided by the National Institute of Allergy and Infectious Diseases and the National Institute of Health. […] Stringent criteria of a minimum EASE/P-Value threshold of 0.001 and a gene count threshold of 5 were used to identify altered gene ontologies.

In test [5] the test system is PC-3 cells. In words: Real-time PCR (qRT-PCR) of stress response and cell cycle related genes. Particulars: 20 μM, 24 hr. The method, then: Cells were treated, lysed and RNA collected and quantified using the same method outlined above. Cells were dosed independently on 3 separate days (n=3). 1 μg of total RNA was converted to cDNA using ReactionReady™ First Strand cDNA Synthesis kit (SuperArray Bioscience Corp.; Frederick, Md.) following manufacturer's protocol. 50 ng of template cDNA was then used in subsequent real-time PCR (qRT-PCR) reactions. Template was combined with target gene specific or β-actin control RT^2 PCR Primer Sets, RT^2 Real-Time™ SYBR Green/Rox Master Mix (SuperArray Bioscience Corp.), and ddH2O for a final reaction volume of 25 μL and run on a 7900HT Fast Real-Time PCR system (Applied Biosystems; Foster City, Calif.) following manufacturer's protocol. Fold changes were calculated using the ΔΔCt method as recommended by the manufacture's protocol.

In test [6] the test system is eIF2α, p-eIF2α, cyclin D1, gp78/BiP, CHOP. In words: Western blot of ERSR related proteins. The note with it: 20 μM. The procedure:
Cells were treated with VN/124-1, thapsigargin or vehicle for 6 and 24 hrs. Protein was isolated, subjected to SDS-PAGE, transferred and imaged as is known in the art. Primary antibodies against eIF2α, p-eIF2α, cyclin D1, gp78/BiP, and β-actin were purchased from Cell Signaling (Danvers, Mass.), Anti-CHOP antibody was purchased from Sigma Aldrich (St Louis, Mo.). Quantitation of relative protein expression was determined via densitometry using the software ImageQuant 5.0 (Molecular Dynamics) with each protein normalized to its respective loading control. Results represent the average of at least 3 independent experiments, with representative blots shown.
(In general: A western blot detects proteins with antibodies after separation by electrophoresis.)

In test [7] the test system is PC-3 cells. In words: Cell cycle analysis by flow cytometry in synchronized cells. The note with it: 20 μM. The procedure:
Cells were synchronized in the G1/G0 phase by maintaining them in 0.2% FBS-containing media for 96 hrs. After starvation, media was replaced with normal growth media (10% FBS) containing vehicle (95% ethanol) or 20 μM VN/124-1 for 12, 18, and 24 hrs. At each timepoint, cells were pelleted and fixed in 70% ethanol at −20° C. for at least 24 hrs. Fixed cells were then incubated with 1 mL propidium iodide (PI) staining buffer (1 mg/ml PI, 0.1% Triton-X, and 10 μg/ml RNase A dissolved in PBS) for 1 hr at room temperature and DNA content was measured by flow cytometry analysis using a FACSort flow cytometer (Becton Dickinson, San Jose, Calif.). 15,000 events were analyzed for each sample and ModFit LT version 3.1 (Verity Software House Ind., ME) was used to analyze cell cycle distribution.

Test [8] relates to PC-3 cells. In words: Ca2+ transients in individual cells, Fluo-3AM. The note with it: 20 μM; for transient rise in [Ca2+]i, mean peak ΔF/F0: Fluo-3AM. The procedure:
(§2) PC-3 Cells were loaded with either fura-2 or fluo-3 indicator by incubation with 2 μM fura-2/AM or 2 μM fluo-3/AM in RPMI 1640 medium containing 10% fetal bovine serum for >60 min at room temperature. During experiments, the coverslips were mounted in a flow chamber and superfused with oxygenated Locke solution containing (in mM): 10 glucose, 136 NaCl, 5.6 KCl, 1.2 NaH2PO4 14.3 NaHCO3, 1.2 MgCl2, and 2.2 CaCl2, pH 7.4, at room temperature (22-24° C.).
For measurement of [Ca^2+]i in individual cells, PC-3 cells were incubated on coverslips with 20 μM VN/124-1 or vehicle for 24 hrs. Cells loaded with fura-2 were placed in a perfusion chamber mounted on an inverted microscope (TE200; Nikon, Tokyo, Japan) equipped with a UV-transmitting objective (SuperFluor, 40×, N.A. 1.4, Nikon). Pura-2 was alternately excited by 340 nm and 380 nm light from monochrometers (Deltascan Illumination System, Photonic Technology International (PTI), South Brunswick, N.J.) and fura-2 emission was passed through a 515 nm longpass tiller before detection by a cooled CCD camera (Retiga 2000R, Q-Imaging, Burnaby, Canada). For measurement of Cat^2+ transients in individual cells, coverslips with fluo-3 loaded cells were excited by the output of a 100 W mercury are lamp that passed through a 480 nm bandpass filter (30 nm bandwidth). Fluorescence emission was passed through a 515 nm longpass filter before capture by a cooled CCD camera (Retiga 2000R, Q-Imaging). Image acquisition was performed with QCapture Pro (Q-Imaging) and analysis was performed with ImageJ (U.S. National Institutes of Health Bethesda, Md. USA).
(§3) Fluo-3 Ca^2+ indicator measurements are reported as the fractional change in fluorescence intensity relative to baseline (ΔF/F0), which was determined as follows. Within a temporal sequence of fluorescence images, a region of interest (ROI) was drawn around each cell to be analyzed. The fluorescence signal from each cell was calculated as the pixel-averaged intensity within each ROI. […]

For test [9], the system named is PC-3 cells. In words: Absolute [Ca2+]i in individual cells, Fura-2AM. Particulars: 20 μM, 24 hrs, control cells about 42.05 nM. The procedure: as §2
For measurement of [Ca^2+]i in individual cells, PC-3 cells were incubated on coverslips with 20 μM VN/124-1 or vehicle for 24 hrs. Cells loaded with fura-2 were placed in a perfusion chamber mounted on an inverted microscope (TE200; Nikon, Tokyo, Japan) equipped with a UV-transmitting objective (SuperFluor, 40×, N.A. 1.4, Nikon). […] Fluorescence emission was passed through a 515 nm longpass filter before capture by a cooled CCD camera (Retiga 2000R, Q-Imaging). […]
as §3

For test [10], the system named is PC-3 cells. In words: Co-administration of VN/124-1 and thapsigargin, MTT cell viability, combination index. Particulars: 96 hrs, CI less than 1 synergistic. The procedure:
All cell lines were obtained from American. Type Culture Collection (Rockville, Md.) and maintained in RPM 1640 media supplemented with 10% fetal bovine serum and 5% penicillin streptomycin solution. Cells were grown as a monolayer in a humidified incubator (5% CO2) at 37° C. To determine the effect of the various compounds on cell proliferation, cells were plated (2500 cells/well) in 96-well cell culture dishes (Corning, Inc. Corning, N.Y.). After a 24 hr attachment period, media was replaced with fresh media containing compounds (0.01 μM-100 μM) or vehicle (95% ethanol). The cells were then allowed to grow in the presence of the drugs for 96 hrs. After 96 hrs, relative cell viability was assessed using the MIT reagent (3-(4,5-dimethylthiazol-2-yl)-2,5-diphenyltetrazolium bromide) as is well-known in the art. Experiments were carried out 3 times with 6 replicates per dose per experiment (n=18). Results were plotted using the average of each dose over all three experiments and fitted with a best-fit sigmoidal dose response variable slope curve using GraphPad Prism 4.01 (GraphPad Software, Inc.). […] Combination index (CI) was calculated as is well known in the art, and CI values less than 1 are considered synergistic.

On to `C[C@]12CC[C@H](O)CC1=CC[C@@H]1[C@@H]2CC[C@]2(C)C(c3cccnc3)=CC[C@@H]12` [Abiraterone, 17-(3-pyridyl)androsta-5,16-dien-3β-ol, reference compound], for which the GI50 in test [1] was found to be 14.7 µM; in test [2], 1.41 µM; in test [3] it was 9.32 µM.
With `C[C@]12CC[C@H](O)CC1=CCC1C2CC[C@]2(C)C(n3cncn3)=CCC12` (stereo partly shown) [VN/63-1], the GI90 in test [1], in test [2] and in test [3] was over 100 µM each time. For the same compound, the GI50 in test [1] was 11 µM; in test [2], 1.05 µM; in test [3] it was 2.91 µM.
`C[C@]12CC[C@H](O)CC1=CCC1C2CC[C@]2(C)C(n3ccnc3)=CCC12` (stereo partly shown) [VN/85-1]: the GI90 was 31.62 µM in [1], 36.49 µM in test [2] and 30.41 µM in test [3]. The concentration for 50% growth inhibition (GI50) in [1] stood at 5.31 µM; in [2], 2.47 µM; in test [3], 1.86 µM.
For the compound `C[C@]12CC[C@H](O)CC1=CC[C@@H]1[C@@H]2CC[C@]2(C)C(n3cnc4ccccc43)=CC[C@@H]12` [VN/124-1], in [1], the GI90 was determined as 15.95 µM and the GI50 stood at 7.55 µM. In test [2], the GI90 amounted to 31.99 µM and the 50% growth inhibitory concentration (GI50) is 3.15 µM. Also, in test [3], the GI50 came to 7.82 µM and the GI90 was 18.62 µM. In addition, the “S100P calcium binding protein gene expression” value in test [4] is reported as “most highly up-regulated”. For the same compound, in test [5] (microarray verified by qRT-PCR), the “activating transcription factor 4 (ATF4) gene expression” value is “up-regulated” and the “asparagines synthetase (ASKS) gene expression” value is listed as “up-regulated”. Moreover, in test [5] (qRT-PCR), the CHOP gene expression entry is on record as “strongly up-regulated”, the “cyclin D1 mRNA levels” value is recorded as “not affected” and the “cyclin E2 mRNA levels” value is given as “significantly reduced”. In test [6], the CHOP protein level result is “up-regulation” and the “expression of gp78/BiP protein” value is listed as “significantly induced”. Moreover, the “phosphorylation of eIF2α” value in test [6] (6 and 24 hrs) was “induced the phosphorylation”. Moreover, in test [6] (24 hrs), the “cyclin D1 protein” value was “down-regulation”. Moreover, the “amount of cells in G1/G0” value in test [7] (18 and 24 hrs, synchronized cells) is given as “significant increase”. Further, in [7] (cells synchronized by serum starvation), the “exit from G1 phase of the cell cycle” value is “prevented the exit from G1 phase”. The “transient rise in [Ca2+]i, mean peak ΔF/F0” value in test [8] (extracellular calcium removed) turned out to be 0.967. In addition, the “transient rise in [Ca2+]i, mean peak ΔF/F0” value in test [8] (presence of extracellular calcium) was found to be 0.613. Further, the “transient rise in [Ca2+]i after depletion of ER calcium stores” value in [8] (pretreatment with SERCA inhibitor cyclopiazonic acid (CPA)) is on record as “completely abolished”. For the same compound, in test [9], the “absolute [Ca2+]i, mean” value was “about 66.21 nM”. The “Combination index (CI)” value in test [10] (5 μM VN/124-1 plus 10 nM thapsigargin) was determined as 0.40. In test [10] (10 μM VN/124-1 plus 10 nM thapsigargin), the “Combination index (CI)” value was 0.58. Further, in test [10] (20 μM VN/124-1 plus 10 nM thapsigargin), the “Combination index (CI)” value was 0.77.
For `C[C@]12CCC(=O)C=C1CCC1C2CC[C@]2(C)C(n3cnc4ccccc43)=CCC12` (stereo partly shown) [VN/125-1], the GI90 in test [1] is 15.53 µM; in [2], 13.46 µM; in [3], 8.07 µM.

In general, GI50 refers to the concentration at which growth is held to half of that of the control.
